From PubChem BioAssay AID248 (DTP/NCI, 2004)
Several values for one entry are separate records, joined by “and”; a condition that tells them apart may be missing. Equal entries are not always repeated. Toxic doses and inconclusive results are not listed.

System: L1210 leukemia ip in BDF1 mice, survival T/C
Test: NCI In Vivo Anticancer Drug Screen. Data for tumor model L1210 Leukemia (intraperitoneal) in B6D2F1 (BDF1) mice
Conditions: higher = longer survival
Outline: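 Each compound was tested against a transplantable tumor grown in mice. The endpoint was survival, with treated animals benchmarked against vehicle controls as a simple ratio.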

[1] = endpoint: mean survival time, dose: 200.0 mg/kg/injection, schedule: Q04DX003 (ip), vehicle: saline with Tween-80
[2] = endpoint: mean survival time, dose: 400.0 mg/kg/injection, schedule: Q04DX003 (ip), vehicle: saline with Tween-80
[3] = endpoint: mean survival time, dose: 100.0 mg/kg/injection, schedule: Q01DX001 (ip), vehicle: Klucel (hydroxypropylcellulose) (HPC)
[4] = endpoint: mean survival time, dose: 200.0 mg/kg/injection, schedule: Q01DX001 (ip), vehicle: Klucel (hydroxypropylcellulose) (HPC)
[5] = endpoint: mean survival time, dose: 100.0 mg/kg/injection, schedule: Q04DX003 (ip), vehicle: Klucel (hydroxypropylcellulose) (HPC)
[6] = endpoint: mean survival time, dose: 200.0 mg/kg/injection, schedule: Q04DX003 (ip), vehicle: Klucel (hydroxypropylcellulose) (HPC)
[7] = endpoint: mean survival time, dose: 400.0 mg/kg/injection, schedule: Q04DX003 (ip), vehicle: Klucel (hydroxypropylcellulose) (HPC)
[8] = endpoint: mean survival time, dose: 100.0 mg/kg/injection, schedule: Q01DX009 (ip), vehicle: Klucel (hydroxypropylcellulose) (HPC)
[9] = endpoint: mean survival time, dose: 200.0 mg/kg/injection, schedule: Q01DX009 (ip), vehicle: Klucel (hydroxypropylcellulose) (HPC)
[10] = endpoint: mean survival time, dose: 400.0 mg/kg/injection, schedule: Q01DX001 (ip), vehicle: Klucel (hydroxypropylcellulose) (HPC)
[11] = endpoint: mean survival time, dose: 100.0 mg/kg/injection, schedule: Q01DX001 (ip), vehicle: saline
[12] = endpoint: mean survival time, dose: 200.0 mg/kg/injection, schedule: Q01DX001 (ip), vehicle: saline
[13] = endpoint: mean survival time, dose: 400.0 mg/kg/injection, schedule: Q01DX001 (ip), vehicle: saline
[14] = endpoint: mean survival time, dose: 50.0 mg/kg/injection, schedule: Q01DX001 (ip), vehicle: Klucel (hydroxypropylcellulose) (HPC)
[15] = endpoint: mean survival time, dose: 50.0 mg/kg/injection, schedule: Q04DX003 (ip), vehicle: Klucel (hydroxypropylcellulose) (HPC)
[16] = endpoint: mean survival time, dose: 12.5 mg/kg/injection, schedule: Q01DX001 (ip), vehicle: Klucel (hydroxypropylcellulose) (HPC)
[17] = endpoint: mean survival time, dose: 25.0 mg/kg/injection, schedule: Q01DX001 (ip), vehicle: Klucel (hydroxypropylcellulose) (HPC)

Cc1cc(Br)c(I)c([N+](=O)[O-])c1
T/C (endpoint: mean survival time, dose: 37.5 mg/kg/injection, schedule: Q04DX003 (ip), vehicle: saline with Tween-80): 104 % of control | T/C (endpoint: mean survival time, dose: 75.0 mg/kg/injection, schedule: Q04DX003 (ip), vehicle: saline with Tween-80): 95 % of control | T/C (endpoint: mean survival time, dose: 150.0 mg/kg/injection, schedule: Q04DX003 (ip), vehicle: saline with Tween-80): 102 % of control

CCC1(CC)C=CC(Br)CC1(CC)CC (stereo not drawn)
T/C (endpoint: mean survival time, dose: 100.0 mg/kg/injection, schedule: Q04DX003 (ip), vehicle: saline with Tween-80): 103 % of control | T/C [1]: 101 % of control | T/C [2]: 101 % of control

COc1ccc(C(=O)OCc2ccccc2CN2CCCC2)cc1
T/C [3]: 102 % of control | T/C [4]: 98 % of control

COC(=O)CC(c1ccc(OC)cc1)C(CC(=O)OC)c1ccc(OC)cc1 (stereo not drawn)
T/C [5]: 98 % of control | T/C [6]: 93 % of control | T/C [7]: 104 % of control

CC(C)=CCCNC(=O)NS(=O)(=O)c1ccc(Cl)cc1
T/C (endpoint: mean survival time, dose: 50.0 mg/kg/injection, schedule: Q01DX009 (ip), vehicle: Klucel (hydroxypropylcellulose) (HPC)): 101 % of control | T/C [8]: 95 % of control | T/C [5]: 104 % of control | T/C [9]: 102 % of control | T/C [6]: 110 % of control | T/C [7]: 95 % of control

COC1OC(COC(C)=O)C(OC(C)=O)C(NC(=O)NCCCl)C1OC(C)=O (stereo not drawn)
T/C [3]: 105 % of control | T/C [4]: 102 % of control | T/C [10]: 102 % of control

S=C=Nc1cccc2c(N=C=S)cccc12
T/C (endpoint: mean survival time, dose: 50.0 mg/kg/injection, schedule: Q01DX001 (ip), vehicle: saline): 98 % of control | T/C [11]: 98 % of control | T/C [12]: 110 % of control | T/C [13]: 119 % of control

Nc1ncnc2nccnc12
T/C (endpoint: mean survival time, dose: 25.0 mg/kg/injection, schedule: Q01DX Z (ip), vehicle: saline): 103 % of control | T/C (endpoint: mean survival time, dose: 75.0 mg/kg/injection, schedule: Q01DX Z (ip), vehicle: saline): 89 % of control

O=C(O)c1cc(=O)c2c(OCC(O)COc3cccc4oc(C(=O)O)cc(=O)c34)cccc2o1
T/C [11]: 100 % of control | T/C [12]: 102 % of control | T/C [13]: 94 % of control

CCCOC(=O)C1(N)CCCC1
T/C (endpoint: mean survival time, dose: 16.0 mg/kg/injection, schedule: Q01DX Z (ip), vehicle: carboxymethylcellulose (CMC)): 117 % of control | T/C (endpoint: mean survival time, dose: 31.0 mg/kg/injection, schedule: Q01DX Z (ip), vehicle: carboxymethylcellulose (CMC)): 119 % of control | T/C (endpoint: mean survival time, dose: 45.0 mg/kg/injection, schedule: Q01DX Z (ip), vehicle: saline): 114 % of control | T/C [14]: 98 % of control | T/C [15]: 103 % of control | T/C (endpoint: mean survival time, dose: 62.0 mg/kg/injection, schedule: Q01DX Z (ip), vehicle: carboxymethylcellulose (CMC)): 120 % of control | T/C [3]: 106 % of control | T/C (endpoint: mean survival time, dose: 100.0 mg/kg/injection, schedule: Q01DX Z (ip), vehicle: saline): 121 % of control | T/C [5]: 117 % of control | T/C (endpoint: mean survival time, dose: 148.0 mg/kg/injection, schedule: Q01DX Z (ip), vehicle: saline): 160 % of control | T/C (endpoint: mean survival time, dose: 150.0 mg/kg/injection, schedule: Q01DX Z (ip), vehicle: saline): 114 % of control | T/C [4]: 117 % of control and 118 % of control | T/C (endpoint: mean survival time, dose: 336.0 mg/kg/injection, schedule: Q01DX Z (ip), vehicle: saline): 110 % of control | T/C [7]: 121 % of control | T/C (endpoint: mean survival time, dose: 500.0 mg/kg/injection, schedule: Q01DX Z (ip), vehicle: carboxymethylcellulose (CMC)): 89 % of control | T/C (endpoint: mean survival time, dose: 504.0 mg/kg/injection, schedule: Q01DX Z (ip), vehicle: saline): 116 % of control

CC(=O)Nc1nnc(SC(C)=O)s1
T/C [8]: 95 % of control and 90 % of control | T/C [9]: 95 % of control | T/C (endpoint: mean survival time, dose: 400.0 mg/kg/injection, schedule: Q01DX009 (ip), vehicle: Klucel (hydroxypropylcellulose) (HPC)): 93 % of control and 94 % of control

CCC1=C(c2ccccc2)OS(=O)(=O)NC1=O
T/C (endpoint: mean survival time, dose: 100.0 mg/kg/injection, schedule: Q04DX003 (ip), vehicle: saline): 97 % of control | T/C (endpoint: mean survival time, dose: 200.0 mg/kg/injection, schedule: Q04DX003 (ip), vehicle: saline): 97 % of control | T/C (endpoint: mean survival time, dose: 400.0 mg/kg/injection, schedule: Q04DX003 (ip), vehicle: saline): 109 % of control

C[Si](C)(C)c1c(F)c(F)c(F)c(F)c1F
T/C (endpoint: mean survival time, dose: 100.0 mg/kg/injection, schedule: Q01DX009 (ip), vehicle: saline with Tween-80): 102 % of control | T/C (endpoint: mean survival time, dose: 200.0 mg/kg/injection, schedule: Q01DX009 (ip), vehicle: saline with Tween-80): 94 % of control | T/C (endpoint: mean survival time, dose: 400.0 mg/kg/injection, schedule: Q01DX009 (ip), vehicle: saline with Tween-80): 97 % of control

Cc1nc2nc(N)nc(N)c2nc1CN(C)c1ccc(C(=O)NC(CCC(=O)O)C(=O)O)cc1 (stereo not drawn)
T/C (endpoint: median survival time, dose: 0.39 mg/kg/injection, schedule: Q01DX009 (ip), vehicle: other): 100 % of control | T/C (endpoint: median survival time, dose: 0.65 mg/kg/injection, schedule: Q01DX009 (ip), vehicle: other): 100 % of control | T/C (endpoint: median survival time, dose: 1.08 mg/kg/injection, schedule: Q01DX009 (ip), vehicle: other): 100 % of control | T/C (endpoint: median survival time, dose: 1.8 mg/kg/injection, schedule: Q01DX009 (ip), vehicle: other): 100 % of control and 90 % of control | T/C (endpoint: median survival time, dose: 5.0 mg/kg/injection, schedule: Q01DX009 (ip), vehicle: other): 90 % of control | T/C (endpoint: median survival time, dose: 14.0 mg/kg/injection, schedule: Q01DX009 (ip), vehicle: other): 100 % of control | T/C (endpoint: median survival time, dose: 39.0 mg/kg/injection, schedule: Q01DX009 (ip), vehicle: other): 100 % of control | T/C (endpoint: median survival time, dose: 108.0 mg/kg/injection, schedule: Q01DX009 (ip), vehicle: other): 100 % of control | T/C (endpoint: median survival time, dose: 180.0 mg/kg/injection, schedule: Q01DX009 (ip), vehicle: other): 110 % of control | T/C (endpoint: median survival time, dose: 300.0 mg/kg/injection, schedule: Q01DX009 (ip), vehicle: other): 100 % of control

O=C(NC1CCCCC1)c1ccc2ccccc2c1O
T/C [1]: 98 % of control | T/C [2]: 95 % of control

CCC[CH2][Sn]1([CH2]CCC)[S]CCOB(OCC[S][Sn]([CH2]CCC)([CH2]CCC)[S]CCOB2OCC[S][Sn]([CH2]CCC)([CH2]CCC)[S]CCO2)OCC[S]1
T/C (endpoint: mean survival time, dose: 6.25 mg/kg/injection, schedule: Q01DX001 (ip), vehicle: Klucel (hydroxypropylcellulose) (HPC)): 100 % of control | T/C [16]: 89 % of control | T/C [17]: 112 % of control

Clc1ccccc1C(=Nc1ccccc1)C(=Nc1ccccc1)c1ccccc1Cl
T/C [16]: 106 % of control | T/C [17]: 102 % of control | T/C (endpoint: mean survival time, dose: 25.0 mg/kg/injection, schedule: Q04DX003 (ip), vehicle: Klucel (hydroxypropylcellulose) (HPC)): 90 % of control | T/C [14]: 106 % of control | T/C [15]: 92 % of control | T/C [3]: 88 % of control | T/C [5]: 87 % of control | T/C [10]: 90 % of control

COC(=O)CC(c1ccc2c(c1)OCO2)N1CCOCC1 (stereo not drawn)
T/C [11]: 119 % of control | T/C [12]: 113 % of control | T/C [13]: 104 % of control

Cc1cc(CC#N)c(CC#N)cc1C
T/C (endpoint: mean survival time, dose: 50.0 mg/kg/injection, schedule: Q01DX001 (ip), vehicle: carboxymethylcellulose (CMC)): 110 % of control | T/C (endpoint: mean survival time, dose: 50.0 mg/kg/injection, schedule: Q01DX009 (ip), vehicle: carboxymethylcellulose (CMC)): 96 % of control and 117 % of control | T/C (endpoint: mean survival time, dose: 50.0 mg/kg/injection, schedule: Q04DX002 (ip), vehicle: carboxymethylcellulose (CMC)): 94 % of control and 102 % of control | T/C (endpoint: mean survival time, dose: 50.0 mg/kg/injection, schedule: Q04DX003 (ip), vehicle: carboxymethylcellulose (CMC)): 98 % of control | T/C (endpoint: mean survival time, dose: 100.0 mg/kg/injection, schedule: Q01DX001 (ip), vehicle: carboxymethylcellulose (CMC)): 97 % of control | T/C (endpoint: mean survival time, dose: 100.0 mg/kg/injection, schedule: Q01DX009 (ip), vehicle: carboxymethylcellulose (CMC)): 100 % of control and 106 % of control | T/C (endpoint: mean survival time, dose: 100.0 mg/kg/injection, schedule: Q04DX002 (ip), vehicle: carboxymethylcellulose (CMC)): 102 % of control and 105 % of control | T/C (endpoint: mean survival time, dose: 100.0 mg/kg/injection, schedule: Q04DX003 (ip), vehicle: carboxymethylcellulose (CMC)): 95 % of control | T/C (endpoint: mean survival time, dose: 200.0 mg/kg/injection, schedule: Q01DX009 (ip), vehicle: carboxymethylcellulose (CMC)): 96 % of control | T/C (endpoint: mean survival time, dose: 200.0 mg/kg/injection, schedule: Q04DX002 (ip), vehicle: carboxymethylcellulose (CMC)): 97 % of control and 107 % of control

CCCCCCCCCCCSSCCCCCCCCCCC
T/C (endpoint: mean survival time, dose: 100.0 mg/kg/injection, schedule: Q04DX003 (ip), vehicle: other): 96 % of control | T/C (endpoint: mean survival time, dose: 200.0 mg/kg/injection, schedule: Q04DX003 (ip), vehicle: other): 96 % of control | T/C (endpoint: mean survival time, dose: 400.0 mg/kg/injection, schedule: Q04DX003 (ip), vehicle: other): 97 % of control
